# Data as given in patent US20250319032A1, “PHARMACEUTICAL COMPOSITIONS OF RIBOCICLIB” (Novartis AG, priority 2024, published 2025).
# Columns and labels:
# [1] = DMP433 (N-nitroso-ribociclib) content in ribociclib base (B10) and ribociclib succinate (B12, drug substance) batches and process experiments, LC-MS/MS or HPLC-HRMS; type: physicochemical; conditions: for DMP433 [ppm] LOQ (0.0625 ppm) / DMP433 [ppm], result in brackets (extrapolation, estimate of actual value below LOQ): ribociclib base (LEE011 B10); for DMP433 in LEE011 B12: laboratory scale salt formation; for DMP433 in LEE011-B12 (IP): nitrite in IPA 1.6 ppb; for DMP433 (LOQ: 30 ppb): LEE011-B10, laboratory scale 30 g experiments; for DMP433 in B10: starting material of 5 kg technical batches
# From the text: The method of testing for the presence and/or total amount of nitrosamines (such as the presence and/or total amount of N-nitroso-ribociclib in free or salt form) that is used in the methods of the invention may be any method which allows for the detection of nitrosamines in a composition. For example, the method may involve the Griess test described above. In such a method, the nitrosamines may be first denitrosated (e.g., by photolysis) to form a nitrite, which is then detected in the Griess test. Alternatively, the method may include high performance liquid chromatography (HPLC)- and/or gas chromatography (GC)-mass spectroscopy. An example of a method of testing for the presence and amount of nitrosamines (namely N-nitroso-ribociclib) is provided herein as Example 14. […]
# 2.7. […] Dissolve the substance using vortex and fill to volume with solvent (50% MeOH). • 3. Filter through 0.2 μm PVDF (polyvinylidene difluoride) or PTFE (polytetrafluoroethylene) filter into a HPLC amber vial, discard the first 0.5 ml.
# A calibration curve for DMP433 is created, using calibration standard solutions L1-L6, and expressing the relationship between responses (peak areas) and standard concentrations (ng/ml). For L1, the average of 6 injections is used. Linear regression is weighed with 1/amount. […]
# [2] = Nitrite content (ion chromatography; LC-FLD with DAN derivatisation; Griess test) in drug substance, intermediates, reagents, solvents, filters, excipients; type: physicochemical; conditions: for Nitrite in LEE011 B12: laboratory scale salt formation; for Nitrite (LOQ: 0.1 ppm) / Nitrite, value in brackets below LOQ: LEE011-B10, laboratory scale 30 g experiments; for Nitrite (ppb): LEE011-DS, further testing
# From the text: The method of testing for the presence and/or total amount of nitrites that is used in the methods of the invention may be any method which allows for the detection and/or quantitation of nitrites in a composition. For example, the method may be the Griess test. The Griess test allows for the detection and analysis of nitrite by the formation of a red-pink colour upon treatment of a nitrite-containing sample with the Griess reagent. The Griess reagent consists of two components in an acidic solution: an aniline derivative and a coupling agent. The most common arrangements use sulfanilamide and N-(1-naphthyl)ethylenediamine. For example 0.2% N-(1-naphthyl)ethylenediamine dihydrochloride and 2% sulfanilamide in 5% phosphoric acid may be used as a Griess reagent. Other aniline derivatives that may be used in a Griess reagent include sulfanilic acid, nitroaniline, and p-aminoacetophenone.
# The Griess test involves two subsequent reactions, as shown in the scheme below. When the aniline derivative (e.g., sulfanilamide) is added, the nitrite ion reacts with it in the Griess diazotization reaction to form a diazonium salt, which then reacts with N-(1-naphthyl)ethylenediamine in an azo-coupling reaction, forming a pink-red azo-dye. Using a spectrophotometer, the nitrite concentration can then be quantitatively detected.
# Additionally purified water; e.g. Milli Q • 2.
# • 10 mM KH2PO4 Weigh accurately about 1.361 g of KH2PO4 into a 1 L volumetric flask, dissolve it in approximately 950 mL of additionally purified water and adjust the pH to 8.0 (with 2.7 M NaOH). Make up to the mark with additionally purified water. • 0.62 M HCl Add a few millilitres (e.g. 20 mL) of additionally purified water to a 200 mL volumetric flask, add 10.280 mL of concentrated HCl, mix and make up to the mark with additionally purified water. • 2.7 M NaOH Weigh accurately about 1.092 g of NaOH pellets into a 10 mL volumetric flask and dissolve it in additionally purified water. Cool to room temperature and make up to the mark with the same solvent. • Reagent DAN Weigh accurately about 5 mg of 2,3-diaminophthalene into a 100 mL volumetric flask and dissolve it with the solvent (methanol/water 1:1 (v/v)). Dilute up to the mark and ensure visual full dissolution. Use an amberglass flask. • Mobile phase A Mix 950 mL of 10 mM KH2PO4 solution (pH=8) and add 50 mL methanol. • Mobile phase B Methanol. • Solvent Methanol/water 1:1 (v/v), e.g. mix 2000 mL of additionally purified water and 2000 mL methanol.
# • Instrument: HPLC with FLR detector; e.g. Waters Arc or equivalent • Column: C18 50×4.6 mm, 2.5 μm, e.g. XBridge C18 2.5 μm, 4.650 mm or equivalent
# • Notes It is recommended to wear additional protective equipment (face mask and gloves) during weighing. • It is recommended to wash the column with 50% methanol after the analysis (example of preparation: mix 500 mL methanol and 500 m1 of additionally purified water). • It is recommended to rinse the injector with solvent after each injection. • All glassware and tools should be rinsed with additionally purified water before use. It is not recommended to leave the solutions open for a longer time before measurement. • Blank solution 1 Transfer 1 mL of solvent into a HPLC vial and perform derivatization as described below. • Blank solution 2 Transfer 10 mL of solvent into a single use glass vial and mix it on a magnetic stirrer for 30 min. Transfer the solution into a 5 mL centrifuge tube and centrifuge for 10 min at 12000 rpm. […] Fill up to the mark with solvent and mix. • (Cnitrite≈0.0005 mg/mL) • Comparison solution Transfer 10 mL of nitrite stock solution into a 500 mL volumetric flask. • (2 parallels) Fill up to the mark with solvent and mix. • Transfer 1 mL solution into a HPLC vial and perform the derivatization as described below. • (Cnitrite≈100 ppb) • Sample solution Accurately weigh about 1000 mg of the sample into a glass vial for single use and add 10 mL of solvent.
# [3] = ribociclib base (LEE011 B10), ion chromatography
# [4] = additional batches of ribociclib base LEE011-B10 (IP-1)
# [5] = nitrite in iPrOH <5 ppb (1.3 ppb extrapolated)
# [6] = nitrite in iPrOH <5 ppb (3.1 ppb extrapolated)
# [7] = starting material used in the theoretical calculation
# [8] = laboratory use test, salt formation B10 to B12 with filter parts added (filter per experiment), AS&T LJ LC-MS/MS
# [9] = laboratory use test, salt formation B10 to B12 with filter parts added, QLS LJ LC-FLD/DAN
smiles,measurement,setting,value
CN(C)C(=O)c1cc2cnc(Nc3ccc(N4CCNCC4)cn3)nc2n1C1CCCC1 [Batch 805193A072],DMP433 [ppm] LOQ (0.0625 ppm),[1],LOQ
same,"DMP433 [ppm], result in brackets (extrapolation, estimate of actual value below LOQ)",[1],0.060 ppm
same,Nitrite [ppm] LOD (1 ppm),[2]; [3],<LOD
CN(C)C(=O)c1cc2cnc(Nc3ccc(N4CCNCC4)cn3)nc2n1C1CCCC1 [Batch 805193A073],DMP433 [ppm] LOQ (0.0625 ppm),[1],LOQ
same,"DMP433 [ppm], result in brackets (extrapolation, estimate of actual value below LOQ)",[1],0.030 ppm
same,Nitrite [ppm] LOD (1 ppm),[2]; [3],<LOD
CN(C)C(=O)c1cc2cnc(Nc3ccc(N4CCNCC4)cn3)nc2n1C1CCCC1 [Batch 805193A074],DMP433 [ppm] LOQ (0.0625 ppm),[1],LOQ
same,"DMP433 [ppm], result in brackets (extrapolation, estimate of actual value below LOQ)",[1],0.029 ppm
same,Nitrite [ppm] LOD (1 ppm),[2]; [3],<LOD
CN(C)C(=O)c1cc2cnc(Nc3ccc(N4CCNCC4)cn3)nc2n1C1CCCC1 [Batch 805193A077],DMP433 [ppb],[1]; [4],51 ppb
same,Nitrite [ppm] LOD (1 ppm),[2]; [4],<LOD
CN(C)C(=O)c1cc2cnc(Nc3ccc(N4CCNCC4)cn3)nc2n1C1CCCC1 [Batch 805193A078],DMP433 in LEE011-B10,[1]; B10 starting material of resin experiments,DMP433: 92 ppb
same,DMP433 [ppb],[1]; [4],78 ppb
same,DMP433 in LEE011 B12,[1]; nitrite in iPrOH 119.6 ppb,14238 ppb
same,DMP433 in LEE011 B12,[1]; nitrite in iPrOH 162.7 ppb,18011 ppb
same,DMP433 in LEE011 B12,[1]; [5],995 ppb
same,DMP433 in LEE011 B12,[1]; [6],1513 ppb
same,DMP433 in LEE011-B12 (IP),[1]; resin treatment of B10/IPA solution,220 ppb
same,DMP433 in LEE011-B12 (IP),[1]; resin treatment only IPA (nitrite carryover from B10 remained),528 ppb
same,Nitrite [ppm] LOD (1 ppm),[2]; [4],<LOD
same,Nitrite in LEE011 B12,[2]; [5],448 ppb
same,Nitrite in LEE011 B12,[2]; [6],326 ppb
CN(C)C(=O)c1cc2cnc(Nc3ccc(N4CCNCC4)cn3)nc2n1C1CCCC1 [Batch 805193A095],DMP433 (LOQ: 30 ppb),[1],55.8 ppb
same,Nitrite (LOQ: 0.1 ppm),[2],< 0.1 ppm
same,"Nitrite, value in brackets below LOQ",[2],0.08 ppm
CN(C)C(=O)c1cc2cnc(Nc3ccc(N4CCNCC4)cn3)nc2n1C1CCCC1 [Batch 805193A096],DMP433 (LOQ: 30 ppb),[1],70.5 ppb
same,Nitrite (LOQ: 0.1 ppm),[2],< 0.1 ppm
same,"Nitrite, value in brackets below LOQ",[2],0.05 ppm
CN(C)C(=O)c1cc2cnc(Nc3ccc(N4CCNCC4)cn3)nc2n1C1CCCC1 [Batch 805193A097],DMP433 (LOQ: 30 ppb),[1],73.9 ppb
same,Nitrite (LOQ: 0.1 ppm),[2],< 0.1 ppm
same,"Nitrite, value in brackets below LOQ",[2],0.07 ppm
CN(C)C(=O)c1cc2cnc(Nc3ccc(N4CCNCC4)cn3)nc2n1C1CCCC1 [Batch 805193A098],DMP433 (LOQ: 30 ppb),[1],78.8 ppb
same,Nitrite (LOQ: 0.1 ppm),[2],< 0.1 ppm
same,"Nitrite, value in brackets below LOQ",[2],0.07 ppm
CN(C)C(=O)c1cc2cnc(Nc3ccc(N4CCNCC4)cn3)nc2n1C1CCCC1.O=C(O)CCC(=O)O [Batch 833268A258],DMP433 [ppb],"[1]; LEE011-DS, further testing",380 ppb
same,Nitrite (ppb),[2],369 ppb
CN(C)C(=O)c1cc2cnc(Nc3ccc(N4CCNCC4)cn3)nc2n1C1CCCC1.O=C(O)CCC(=O)O [Batch 833268A259],DMP433 [ppb],"[1]; LEE011-DS, further testing",395 ppb
same,Nitrite (ppb),[2],284 ppb
CN(C)C(=O)c1cc2cnc(Nc3ccc(N4CCNCC4)cn3)nc2n1C1CCCC1 [Batch 923037A002],DMP433 [ppm] LOQ (0.0625 ppm),[1],LOQ
same,"DMP433 [ppm], result in brackets (extrapolation, estimate of actual value below LOQ)",[1],0.047 ppm
same,Nitrite [ppm] LOD (1 ppm),[2]; [3],<LOD
CN(C)C(=O)c1cc2cnc(Nc3ccc(N4CCNCC4)cn3)nc2n1C1CCCC1 [Batch 923037A005],DMP433 [ppm] LOQ (0.0625 ppm),[1],LOQ
same,"DMP433 [ppm], result in brackets (extrapolation, estimate of actual value below LOQ)",[1],0.048 ppm
same,Nitrite [ppm] LOD (1 ppm),[2]; [3],<LOD
CN(C)C(=O)c1cc2cnc(Nc3ccc(N4CCNCC4)cn3)nc2n1C1CCCC1 [Batch B704193],DMP433 [ppb],[1]; [4],57 ppb
same,DMP433 [ppm] LOQ (0.0625 ppm),[1],LOQ
same,"DMP433 [ppm], result in brackets (extrapolation, estimate of actual value below LOQ)",[1],0.006 ppm
same,Nitrite [ppm] LOD (1 ppm),[2]; [4],<LOD
CN(C)C(=O)c1cc2cnc(Nc3ccc(N4CCNCC4)cn3)nc2n1C1CCCC1 [Batch B705468],DMP433 [ppb],[1]; [4],130 ppb
same,DMP433 [ppm],[1]; [7],0.03 ppm
same,Nitrite [ppm] LOD (1 ppm),[2]; [4],<LOD
same,Nitrite [ppm],[2]; [7],<0.1 ppm
CN(C)C(=O)c1cc2cnc(Nc3ccc(N4CCNCC4)cn3)nc2n1C1CCCC1 [LEE011-B10 24003],DMP433 (ppm) in B10,"[1]; B10 batches on commercial scale, potassium carbonate of different nitrite level",0.05 ppm
same,Nitrite [ppm],"[2]; in B10 batches on commercial scale, potassium carbonate of different nitrite level",0.1 ppm
CN(C)C(=O)c1cc2cnc(Nc3ccc(N4CCNCC4)cn3)nc2n1C1CCCC1.O=C(O)CCC(=O)O [LEE011-cusakal1-021],DMP433 [ppm],[1]; [8],1.682 LJ ppm
same,Nitrite [ppm],[2]; [9],app. 0.26 ppm
CN(C)C(=O)c1cc2cnc(Nc3ccc(N4CCNCC4)cn3)nc2n1C1CCCC1 [LEE011-cusakal1-032],DMP433 [ppm],[1]; [8],1.487 ppm
same,Nitrite [ppm],[2]; [9],app. 0.3 ppm
CN(C)C(=O)c1cc2cnc(Nc3ccc(N4CCNCC4)cn3)nc2n1C1CCCC1.O=C(O)CCC(=O)O [LEE011-cusakal1-033],DMP433 [ppm],[1]; [8],1.272 ppm
same,Nitrite [ppm],[2]; [9],app. 0.3 ppm
CN(C)C(=O)c1cc2cnc(Nc3ccc(N4CCNCC4)cn3)nc2n1C1CCCC1.O=C(O)CCC(=O)O [LEE011-cusakal1-034],DMP433 [ppm],[1]; [8],1.789 ppm
same,Nitrite [ppm],[2]; [9],app. 0.2 ppm
CN(C)C(=O)c1cc2cnc(Nc3ccc(N4CCNCC4)cn3)nc2n1C1CCCC1.O=C(O)CCC(=O)O [LEE011-cusakal1-035],DMP433 [ppm],[1]; [8],1.661 ppm
same,Nitrite [ppm],[2]; [9],app. 0.2 ppm
CN(C)C(=O)c1cc2cnc(Nc3ccc(N4CCNCC4)cn3)nc2n1C1CCCC1.O=C(O)CCC(=O)O [LEE011-cusakal1-036],DMP433 [ppm],[1]; [8],2.100 ppm
same,Nitrite [ppm],[2]; [9],app. 0.3 ppm
CN(C)C(=O)c1cc2cnc(Nc3ccc(N4CCNCC4)cn3)nc2n1C1CCCC1.O=C(O)CCC(=O)O [LEE011-cusakan1-050],DMP433 [ppm],[1]; [8],0.530 ppm
same,Nitrite [ppm],[2]; [9],app. 0.6 ppm
CN(C)C(=O)c1cc2cnc(Nc3ccc(N4CCNCC4)cn3)nc2n1C1CCCC1.O=C(O)CCC(=O)O [Technical batch 1],DMP433 in B10,[1],55.8 ppb
CN(C)C(=O)c1cc2cnc(Nc3ccc(N4CCNCC4)cn3)nc2n1C1CCCC1.O=C(O)CCC(=O)O [Technical batch 2],DMP433 in B10,[1],55.8 ppb
same,reduction of the amount of DMP433 formed by use of distilled iPrOH,[1]; technical batch 2 (distilled) vs technical batch 1 (non-distilled),approx. 50%
